{
  "source": "patent US4092426A",
  "about": "“Novel aminobenzoic acid derivatives, process for preparing the same and pharmaceutical composition containing the same” (Chugai Seiyaku Kabushiki Kaisha, priority 1975, dated 1978)",
  "key": {"triglyceride in liver": {"test_system": "triglyceride in liver", "test": "Action for decreasing triglyceride in liver (ethanol-induced)", "assay_type": "in vivo, Sprague Dawley strain female rats", "settings": "rat, oral 100 mg/kg, 30 min before ethanol 6 g/kg; 24 h; 100 mg/kg", "procedure": "Sprague Dawley strain female rats each weighing 170 - 200 g which had been fasted for 15 hours were divided into groups of 4 rats each. The rats were orally administered a different test compound in a dose of 100 mg/kg, and 30 minutes after the administration, orally administered ethanol in a dose of 6 g/kg. Twenty-four hours after the administration of ethanol, the liver of each rat was taken out and neutral lipid level in the liver was measured in a conventional manner to calculate the ratio of preventing an increase in triglyceride content in the liver. For a control group, ethanol and, for the other control group, a glucose aqueous solution equivalent in calorific value to the same amount of ethanol were used and the same manner as those of test groups, and for the positive control group, commercially available 2-mercaptopropionylglycine was used instead of the test compound.\n*The % prevention was calculated by the following"}, "Adjuvant arthritis": {"test_system": "Adjuvant arthritis", "test": "Activity for Treating Adjuvant Arthritis (hind paw volume)", "assay_type": "in vivo, Sprague Dawley strain male rats", "procedure": "Sprague Dawley strain male rats (eight week old) were used as test animals. […] Seventeen days after the sensitization, degree of swelling of hind pawls of each rat was determined by measuring the volume of its hind paws and the rats were divided into groups of 10 members each so that average degree of swelling for each of the groups was approximately equal. Each group of rats was orally administered with the test compound, disodium salt of N-2'-carboxyphenyl-4-chloroanthranilic acid, in a dose as shown in Table 5 once a day for a week starting on the seventeenth day after the sensitization. Degree of swelling of hind paws of each rat was measured every second or third day after the completion of the administration of the test compound till the 31st day from the sensitization. The reduction in volume of the hind paws was used as an index to evaluate the pharmacological activity.\nThe results of the statistical test which was made on the values obtained on the 24th and 31st days from the sensitization are shown in Table 5."}, "[1]": {"test_system": "autoimmune glomerulonephritis", "test": "Activity for Treating a Model of Autoimmune Disease (glomerulonephritis)", "assay_type": "in vivo, New Zealand Black/White F1 female mice", "procedure": "Pharmacological activity of the test compound, disodium salt of N-2'-carboxyphenyl-4-chloroanthranilic acid, was studied by the use of glomerulonephritis of New Zealand Black/White F1 female mice as a model of autoimmune disease. The test animals were divided into groups of 8 members each and orally administered with the test compound in a dose of 5 mg/kg or 50 mg/kg once a day from 8 week old. Development of the disease was evaluated by measuring the level of protein in urine with Combistix test paper (Ames Co., Inc.). It was confirmed that the evaluation by the test paper closely corresponds to the results of a quantitative analysis by a sulfosalicyclic acid method. Changes in average level of protein in urine each of the groups during a period of from 20 weeks old to 35 weeks old of the mice are shown in FIG. 2. […] Further, 3 mice among 8 mice of the control group were died from glomerulonephritis during the period of from 35 to 40 weeks from their birth, while there was no death in the groups to which the test compound had been administered."}, "Sarcoma-180": {"test_system": "Sarcoma-180", "test": "Antitumor Activity on Transplanted Tumor Cells (Sarcoma-180)", "assay_type": "in vivo, ddY strain male mice", "settings": "10 mg/kg oral once a day for 11 days; tumor weight 14 days after transplantation", "source_text": "For test animals, ddY strain male mice weighing 20 - 25 g were used dividing into groups of 9 or 10 members each. Each of the mice was subjected to transplantation of 10^6 tumor cells (Sarcoma-180) at a portion of the root of a hind paw by subcutaneous injection to induce solid tumor. The test compound, disodium salt of N-2'-carboxyphenyl-4-chloroanthranilic acid, was orally administered once a day for 11 days from the day that transplantation was made. Fourteen days after the transplantation, the grown tumor tissue was taken out from each mouse and its wet weight was measured to evaluate antitumor activity of the test compound. […] For the reasons stated above, it is assumed that the activity of the test compound is based on host-mediated antitumor activity."}, "lymphocites [2]": {"test_system": "lymphocites", "test": "Activity for Promoting Blastogenesis of Lymphocites (in vitro)", "assay_type": "cell-based, C3 H/He strain male mice", "settings": "10^-1 to 10^-2 μg/ml", "procedure": "In this Experiment, influence of the test compound disodium salt of N-2'-carboxyphenyl-4-chloroanthranilic acid on blastogenesis of lymphocites was studied by the use of spleen cells and lymphonoid cells of mouse and rat. For in vitro test, C3 H/He strain male mice and for in vivo Wistar-Imamichi strain male rats were used respectively. Concanavallin A manufactured by Sigma was used as the blastogenetic factor in the in vitro test and lymphocites were cultured by the use of medium of RPMI 1640 manufactured by Grand Island Biological Co. The cultivation of the lymphocites was carried out in the medium at 37° C in a 5% carbon dioxide atmosphere for about 48 hours and after the addition of 0.5 μCi/ml of ^3 H-thymidine, the cells in the medium were incubated for 16 hours and then the lymphocites were separated. The radioactivity of the separated cells was measured by a scintillation counter and the value was evaluated as an indicator of blastogenetic degree. For the in vivo test, the in vitro test was repeated except that each rat was orally administered with the test compound in a dose of 5 or 50 mg/kg. In this case, the rats administered with the test compound were divided into groups of 3 members each and the cells to be cultivated from the rats in each group were placed under the same cultivation conditions. […]"}, "lymphocites [3]": {"test_system": "lymphocites", "test": "Activity for Promoting Blastogenesis of Lymphocites (in vivo)", "parameters": "species or system Wistar-Imamichi strain male rats", "procedure": "In this Experiment, influence of the test compound disodium salt of N-2'-carboxyphenyl-4-chloroanthranilic acid on blastogenesis of lymphocites was studied by the use of spleen cells and lymphonoid cells of mouse and rat. For in vitro test, C3 H/He strain male mice and for in vivo Wistar-Imamichi strain male rats were used respectively. Concanavallin A manufactured by Sigma was used as the blastogenetic factor in the in vitro test and lymphocites were cultured by the use of medium of RPMI 1640 manufactured by Grand Island Biological Co. The cultivation of the lymphocites was carried out in the medium at 37° C in a 5% carbon dioxide atmosphere for about 48 hours and after the addition of 0.5 μCi/ml of ^3 H-thymidine, the cells in the medium were incubated for 16 hours and then the lymphocites were separated. The radioactivity of the separated cells was measured by a scintillation counter and the value was evaluated as an indicator of blastogenetic degree. For the in vivo test, the in vitro test was repeated except that each rat was orally administered with the test compound in a dose of 5 or 50 mg/kg. In this case, the rats administered with the test compound were divided into groups of 3 members each and the cells to be cultivated from the rats in each group were placed under the same cultivation conditions. The results of the experiments are shown in FIG. 4 (in vitro) and FIG. 5 (in vivo), respectively."}, "antibody in blood": {"test_system": "antibody in blood", "test": "Titer of antibody in blood of cortisone-treated mice (hemolysing method)", "assay_type": "in vivo, IV CS strain male mice", "procedure": "As test animals, IV CS strain male mice (5 week old) were used by dividing them into groups of 5 members each. Each mouse was intraperitoneally administered with cortisone in a dose of 60 mg/kg once a day for 5 days. Three days after the first administration, the sensitization with an antigen, sheep red blood cell (SRBC), was made by injecting the antigen into the mouse through the tail vein. Each mouse was orally administered with the test compound, disodium salt of N-2'-carboxyphenyl-4-chloroanthranilic acid, a day after the sensitization. Five days after the sensitization, the number of plaque forming cells (PFC) in the spleen was measured in a usual manner.\n* Titer of antibody in blood is indicated by a dilution degree of 50%"}},
  "note": "Where a name gives a salt, the structure may show the parent alone.",
  "data": [
    {"compound": "O=C(O)c1ccccc1Nc1cc(Cl)ccc1C(=O)O", "note": "[disodium salt of N-2'-carboxyphenyl-4-chloroanthranilic acid]", "values": [
      {"measurement": "% Prevention (of increase in triglyceride content in the liver)", "setting": "triglyceride in liver", "value": 63.6, "unit": "%"},
      {"measurement": "volume of hind paws", "setting": "Adjuvant arthritis; 0.1 mg/kg oral, day 24 after the sensitization", "value": "3.524 ± 0.170", "unit": "mL"},
      {"measurement": "volume of hind paws", "setting": "Adjuvant arthritis; 0.1 mg/kg oral, day 31 after the sensitization", "value": "3.762 ± 0.216", "unit": "mL"},
      {"measurement": "volume of hind paws", "setting": "Adjuvant arthritis; 1 mg/kg oral, day 24 after the sensitization", "value": "3.214 ± 0.161", "unit": "mL"},
      {"measurement": "volume of hind paws", "setting": "Adjuvant arthritis; 1 mg/kg oral, day 31 after the sensitization", "value": "3.289 ± 0.223", "unit": "mL"},
      {"measurement": "volume of hind paws", "setting": "Adjuvant arthritis; 5 mg/kg oral, day 24 after the sensitization, ** P<0.01", "value": "3.175 ± 0.100", "unit": "mL"},
      {"measurement": "volume of hind paws", "setting": "Adjuvant arthritis; 5 mg/kg oral, day 31 after the sensitization, * P<0.05", "value": "3.102 ± 0.141", "unit": "mL"},
      {"measurement": "volume of hind paws", "setting": "Adjuvant arthritis; 10 mg/kg oral, day 24 after the sensitization, ** P<0.01", "value": "3.027 ± 0.126", "unit": "mL"},
      {"measurement": "volume of hind paws", "setting": "Adjuvant arthritis; 10 mg/kg oral, day 31 after the sensitization, * P<0.05", "value": "3.121 ± 0.176", "unit": "mL"},
      {"measurement": "volume of hind paws", "setting": "Adjuvant arthritis; 100 mg/kg oral, day 24 after the sensitization", "value": "3.350 ± 0.168", "unit": "mL"},
      {"measurement": "volume of hind paws", "setting": "Adjuvant arthritis; 100 mg/kg oral, day 31 after the sensitization", "value": "3.482 ± 0.170", "unit": "mL"},
      {"measurement": "activity for treating adjuvant arthritis of rat", "setting": "Adjuvant arthritis; 5 or 10 mg/kg oral", "value": "significant level of activity"},
      {"measurement": "suppression of autoimmune glomerulonephritis", "setting": "[1]; 5 or 50 mg/kg oral once a day", "value": "significantly shows pharmacological activities to suppress autoimmune glomerulonephritis"},
      {"measurement": "level of protein in urine", "setting": "[1]; 5 or 50 mg/kg oral once a day, 20 to 35 weeks old, control rose after around 27 weeks", "value": "maintained a relatively steady level"},
      {"measurement": "death from glomerulonephritis", "setting": "[1]; 5 or 50 mg/kg oral, 35 to 40 weeks from birth, control 3 among 8 died", "value": "no death"},
      {"measurement": "suppression of tumor growth (Sarcoma-180)", "setting": "Sarcoma-180", "value": "significant activity for suppression of tumor growth"},
      {"measurement": "activity of Concanavallin A (blastogenesis of lymphocites)", "setting": "lymphocites [2]", "value": "improved the activity of Concanavallin A"},
      {"measurement": "degree of promotion (S.I. value) of blastogenesis", "setting": "lymphocites [3]; rat, oral 5 or 50 mg/kg, one day before Concanavallin A", "value": "about twice as large as that of the control"},
      {"measurement": "activity of Concanavallin A", "setting": "lymphocites [3]; rat, oral 5 or 50 mg/kg, one day before Concanavallin A, vs control", "value": "increased to about double"},
      {"measurement": "improvement of the activity of Concanavallin A", "setting": "lymphocites [3]; rats or mice, four days before Concanavallin A", "value": "the improvement of the activity was observed"},
      {"measurement": "Titer of Antibody (dilution degree of 50% hemolysis)", "setting": "antibody in blood; Cortisone + Test Compound (10 mg/kg)", "value": "10^10"},
      {"measurement": "Titer of Antibody (dilution degree of 50% hemolysis)", "setting": "antibody in blood; Cortisone + Test Compound (50 mg/kg)", "value": "10^6"}
    ]}
  ]
}
